# Measurements from patent publication US6969724B2, “Compounds” (SmithKline Beecham-SpA, priority 1998, dated 2005).
row,SMILES,melting point
1,Cl.c1ccc(C2CCN(CC3Cc4ccccc4C3)CC2)cc1,> 240 °C
2,Cl.c1ccc(C2CCN(C3Cc4ccccc4C3)CC2)cc1,> 250 °C
3,Cl.c1ccc(C2CCN(C3CCc4ccccc4CC3)CC2)cc1,> 250 °C
4,Cl.c1ccc(C2CCN(CC3CCc4ccccc4CC3)CC2)cc1,> 250 °C
5,Cc1ccccc1C1CCN(CC2CCc3ccccc3CC2)CC1.Cl,245 °C
6,Cl.O=C1CC(CN2CCC(c3ccccc3)CC2)CCc2ccccc21 (racemic),220 °C (dec.)
7,COc1cccc2c1CCC(CN1CCC(c3ccccc3)CC1)CC2=O.Cl (racemic),140 to 143 °C
8,COc1ccc2c(c1)C(=O)CC(CN1CCC(c3ccccc3)CC1)CC2.Cl (racemic),185 to 188 °C
9,CO[C@@H]1C[C@H](CN2CCC(c3ccccc3)CC2)CCc2ccccc21.Cl (racemic),213 to 215 °C
10,CO[C@@H]1C[C@@H](CN2CCC(c3ccccc3)CC2)CCc2ccccc21.Cl (racemic),220 to 222 °C
11,Cl.Oc1ccccc1C1CCN(CC2CCc3ccccc3C(O)C2)CC1 (racemic),158 to 160 °C
12,Cl.O[C@@H]1C[C@H](CN2CCC(c3cccc(F)c3)CC2)CCc2ccccc21 (racemic),238 to 240 °C
13,Cc1ccccc1C1CCN(C[C@@H]2CCc3ccccc3[C@H](O)C2)CC1.Cl (racemic),> 250 °C
14,Cl.O[C@@H]1C[C@H](CN2CCC(c3ccc(OCc4ccccc4)cc3)CC2)CCc2ccccc21 (racemic),225 to 228 °C
15,Cl.O[C@@H]1C[C@H](CN2CCC(c3cccc(Br)c3)CC2)CCc2ccccc21 (racemic),> 250 °C
16,Cl.OC1CC(CN2CCC(c3ccccc3)CC2)CCc2c(F)cccc21 (racemic),218 to 220 °C
17,Cl.OC1CC(CN2CCC(c3ccc(F)cc3)CC2)CCc2ccccc21 (racemic),227 to 229 °C
18,COc1cc(OC)cc(C2CCN(CC3CCc4ccccc4C(O)C3)CC2)c1.Cl (racemic),223 to 225 °C
19,Cl.O[C@@H]1C[C@H](CN2CCC(c3ccccc3)CC2)CCc2c(-c3ccccc3)cccc21 (racemic),245 to 246 °C
20,Cl.OC1CC(CN2CCC(c3ccccc3Cl)CC2)CCc2ccccc21 (racemic),239 to 240 °C
21,Cl.O[C@@H]1C[C@H](CN2CCC(c3ccccc3)CC2)CCc2c(Br)cccc21 (racemic),220 to 224 °C

row,SMILES,melting point
1,Cl.OC1CC(CN2CCC(c3ccccc3)CC2)CCc2c(OCc3ccccc3)cccc21 (racemic),198 to 202 °C
2,Cc1cccc2c1CC[C@@H](CN1CCC(c3cccc(F)c3)CC1)C[C@H]2O.Cl (racemic),241 to 243 °C
3,Cl.Oc1cccc2c1CC[C@@H](CN1CCC(c3ccccc3)CC1)C[C@H]2O (racemic),190 to 193 °C
4,COc1cccc2c1C(O)CC(CN1CCC(c3ccccc3)CC1)CC2.Cl (racemic),176 to 189 °C
5,Cc1cc(C)c2c(c1)C(=O)CC(CN1CCC(c3ccccc3)CC1)CC2.Cl (racemic),222 to 225 °C
6,COc1ccccc1C1CCN(CC2CCc3ccccc3C(=O)C2)CC1.Cl (racemic),232 to 234 °C
7,Cl.O=C1CC(CN2CCC(c3ccccc3)CC2)CCc2ccc(Cl)cc21 (racemic),180 to 185 °C
8,Cl.O=C1CC(CN2CCC(c3ccccc3O)CC2)CCc2ccccc21 (racemic),216 to 218 °C
9,C1=CC(CN2CCC(c3ccccc3)CC2)CCc2ccccc21.Cl (racemic),> 250 °C
10,C=CCO[C@@H]1C[C@H](CN2CCC(c3ccccc3)CC2)CCc2ccccc21.Cl (racemic),126 to 128 °C
11,Cl.O[C@@H]1C[C@@H](CN2CCC(c3ccccc3)CC2)CCc2ccccc21 (racemic),> 250 °C
12,COc1cccc2c1CC[C@@H](CN1CCC(c3ccccc3)CC1)C[C@H]2O.Cl (racemic),229 to 231 °C
13,COc1cccc2c1CC[C@H](CN1CCC(c3ccccc3)CC1)C[C@H]2O.Cl (racemic),> 250 °C
14,C1=CC(CN2CCC(c3ccccc3)CC2)Cc2ccccc21.Cl (racemic),239 to 240 °C
15,"O[C@@H]1C[C@H](CN2CCC(c3ccccc3)CC2)CCc2ccccc21 (racemic) [Example 9, (±)-cis-7-[(4-Phenylpiperidin-1-yl)methyl]-6,7,8,9-tetrahydro-5H-benzocyclohepten-5-ol]",48 to 50 °C
16,"COc1cccc2c1CCC(CN1CCC(c3ccccc3)CC1)CC2O (racemic) [Example 10, (±)-1-Methoxy-7-[(4-phenylpiperidin-1-yl)methyl]-6,7,8,9-tetrahydro-5H-benzocyclohepten-5-ol]",46 to 48 °C
17,"COc1ccc2c(c1)C(O)CC(CN1CCC(c3ccccc3)CC1)CC2 (racemic) [Example 11, (±)-3-Methoxy-7-[(4-phenylpiperidin-1-yl)methyl]-6,7,8,9-tetrahydro-5H-benzocyclohepten-5-ol]",45 to 48 °C
18,"Cc1cc(C)c2c(c1)C(O)CC(CN1CCC(c3ccccc3)CC1)CC2 (racemic) [Example 20, (±)-1,3-dimethyl-7-[(4-phenylpiperidin-1-yl)methyl]-6,7,8,9-tetrahydro-5H-benzocyclohepten-5-ol]",52 to 55 °C
19,"COc1ccccc1C1CCN(C[C@@H]2CCc3ccccc3[C@H](O)C2)CC1 (racemic) [Example 21, (±)-cis-7-[[4-(2-methoxyphenyl)piperidin-1-yl]methyl]-6,7,8,9-tetrahydro-5H-benzocyclohepten-5-ol]",72 to 74 °C
20,"Cc1cccc2c1CC[C@@H](CN1CCC(c3ccccc3)CC1)C[C@H]2O (racemic) [Example 27, (±)-cis-1-methyl-7-[(4-phenylpiperidin-1-yl)methyl]-6,7,8,9-tetrahydro-5H-benzocyclohepten-5-ol]",52 to 55 °C
